10 compounds from PubChem BioAssay (NCI) can be followed below.

Assay in all cases: inhibition of tumour cell growth, NCI panel, 48 h
The test system of test [1] is NCI-H23 lung.
Test [2] relates to HOP-92 NSCLC.
Test [3] relates to HCT-15 colon.
The test system of test [4] is SNB-19 CNS.
Test [5] relates to SN12C renal.
The test system of test [6] is NCI-H460 lung.
For test [7], the system named is UACC-62 melanoma.
In test [8] the test system is U251 CNS.
Test [9] deals with ACHN renal.
The subject of test [10] is HT29 colon.
The subject of test [11] is K-562 leukemia.
Test [12] has as its system SR leukemia.
Test [13] has as its system SK-MEL-2 melanoma.
Test [14] concerns NCI-H522 lung.
Test [15] concerns RXF 393 renal.

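Grown in 96-well plates, cells were treated for 48 hours with each compound at five concentrations. Insufficient inhibition: endpoint recorded as highest concentration tested. The concentration for full growth arrest is given as TGI.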

As for `CCCCCCCCCCCCCCCCCC(=O)NCCCNCCCNC(=O)CCCCCCCCCCCCCCCCC`, the TGI in test [1], in test [2], in test [3], in test [4], in [5] and in test [6] was more than 100 µM in each case. In addition, the TGI in [7], in [8], in test [9], in test [10] and in test [11] was more than 100 µM throughout.
Regarding `Cc1ccc2c(c1)NC(=O)C(N=[N+]=[N-])(c1ccccc1)C2=O` (stereo not given), the TGI in test [1] was found to be 45.9 µM; in test [2], 85.2 µM; in test [12] it was 56.7 µM; in test [3], 52.2 µM; in test [4], 98.1 µM; in test [13] it was 36.2 µM. For the same compound, the TGI in [5] was 48.2 µM; in [6], more than 100 µM; in [7], 61.3 µM; in test [8], 74.6 µM; in test [9], more than 100 µM; in test [10] it was 43.9 µM. The TGI was 56.6 µM in [11] and 45.6 µM in test [14].
Regarding `COc1ccc(OC)c(CCc2cc(OC)c(OC)cc2C)c1`, the TGI in test [1], in test [4], in test [13], in [5], in test [6] and in test [7] was more than 100 µM throughout. Also, the TGI in test [8] is more than 100 µM; in [9] it was more than 100 µM; in test [10], more than 100 µM; in test [11], more than 100 µM; in test [14], 20.4 µM.
`CCCCCN(CCCCC)C(=O)[C@@H](CCC(=O)OCc1ccccc1)NC(=O)c1cc2ccccc2[nH]1`: the TGI in [1], in [2], in test [3], in test [4], in test [13] and in test [5] was more than 100 µM in each case. The TGI in test [6], in test [15], in test [7], in test [8], in [9] and in test [10] was more than 100 µM throughout. For the same compound, the TGI in test [11] and in [14] was more than 100 µM in each case.
`O=C(Nc1cc(C(F)(F)F)ccc1Cl)C(=O)C(C(=O)c1ccc2ccccc2c1)C1OC(=O)c2ccccc21` (stereo not given): the TGI in test [1] stood at 17.8 µM; in test [2] it was 28.1 µM; in test [12], 14.9 µM; in [3], 30.1 µM; in test [4], 20.6 µM; in test [13] it was 28.7 µM. The TGI in [5] is 21 µM; in [6] it was 20.7 µM; in test [15], 8.11 µM; in test [7], 32.9 µM; in test [8], 14.3 µM; in [9], more than 86.7 µM. The TGI in test [10] was 31.7 µM; in test [11], 49.6 µM; in [14], 20 µM.
With `CCOc1ccc(N=Cc2cc(OC)c(OC)c(OC)c2)cc1`, the TGI in test [1], in [2], in [3], in test [4], in test [13] and in test [5] was more than 100 µM throughout. Besides, the TGI in test [6], in test [15], in [7], in test [8], in test [9] and in test [10] was more than 100 µM each time. Further, the TGI in test [11] and in test [14] was more than 100 µM each time.
As for `C[n+]1c2ccccc2c(NC(CCC(N)=O)C(=O)O)c2ccccc21` (stereo not given), the TGI in test [1], in [2], in test [12], in test [3], in [4] and in test [13] was more than 100 µM in each case. Besides, the TGI in test [5], in [6], in test [15], in [7], in test [8] and in [9] was more than 100 µM each time. In addition, the TGI in test [10], in [11] and in test [14] was more than 100 µM throughout.
Turning to `CN(C)CC1(C)CC/C(=C\c2ccc3c(c2)OCO3)C1=O` (stereo not given), the TGI in test [1], in [2], in [12], in [3], in test [4] and in [13] was more than 100 µM throughout. Besides, the TGI in test [5], in [6], in [15], in test [7], in test [8] and in test [9] was more than 100 µM throughout. Further, the TGI in [10], in [11] and in [14] was more than 100 µM throughout.
As to `CCC(C)(C)NC1=C(NC(C)=O)C(=O)c2ccccc2C1=O`, the TGI in test [1] is 73.7 µM; in [12], more than 75 µM; in [3], more than 75 µM; in [4], more than 75 µM; in test [13] it was 58.2 µM; in [5], more than 75 µM. In addition, the TGI in test [6] was more than 75 µM; in test [15] it was more than 75 µM; in [7], more than 75 µM; in test [8], more than 75 µM; in test [9], 43.2 µM; in test [10] it was more than 75 µM. Moreover, the results for the TGI in test [11] and in [14] were 53.4 µM and 28.7 µM, respectively.
Turning to `Cc1c2n(c3ccccc13)CC1C2N(C)OC1(C)C` (stereo not given), the TGI in [1], in test [12], in test [3], in test [4], in test [13] and in test [5] was more than 100 µM each time. In addition, the TGI in test [6], in test [7], in test [9], in test [10], in test [11] and in test [14] was more than 100 µM each time.
